Data from article PMC3251870 (British Journal of Cancer, 2011).

Experiments:
Melanocytes = experiment: MTS cell viability, primary melanocytes; type: cell-based, human; conditions: 4 days
Method: (§1) All human cancer cell lines were maintained in RPMI media supplemented with 5% (lung and breast cancer cells) or 10% (melanoma cells) fetal bovine serum. […] Human mammary epithelial cells immortalised with telomerase were maintained in complete MEGM media from Cambrex (East Rutherford, NJ, USA).
(§2) Absorbance at 490 and 650 nm (reference wavelength) was measured by a Spectra Max (Molecular Devices, Sunnyvale, CA, USA) or a FlouroStar Omega (BMG Biosciences, Ortenberg, Germany) plate reader. Data were normalised to the untreated controls (100% viability). Each cell line was tested in 1–5 independent assays, each containing 4–8 replicates. IC50 values were calculated using DIVISA, a high-throughput software, developed in-house (manuscript in preparation), for storing and analysing drug sensitivity assays. Dose–response curves were plotted using a non-linear regression model and IC50s were determined from the fitted curves.

[1] = test system: 1585T immortalised normal human mammary epithelial cells; experiment: MTS cell viability, 1585T; type: cell-based; conditions: 4 days
Method: as §1, §2

H2073 cells = experiment: MTS cell viability, H2073; type: cell-based, human; conditions: H2073 NSCLC, MTS, 4 days
Method: as §1, §2

[2] = test system: total HDAC activity, C127 cell extracts; experiment: Total HDAC activity in cell extracts treated in vitro; type: biochemical
Description: HDAC2 was purified as described below.

H2009 cells = experiment: MTS cell viability, H2009; type: cell-based, human; conditions: H2009 NSCLC, 4 days
Method: as §1, §2

[3] = test system: histone 4 acetylation in H358 cells; experiment: Western blot, acetylated histone 4; type: cell-based, human; conditions: 4 h
Method: (§3) Exponentially growing cells were treated with the appropriate compounds and harvested 4 or 24 h later in a standard nuclear lysis buffer and whole cell lysates were quantified. Equal amounts of total protein were loaded onto 4–12% Bis-Tris SDS gels and subjected to electrophoresis. After transferring onto nitrocellulose membranes, blots were probed for acetylated tubulin (Sigma, St Louis, MO, USA; T6793), acetylated histone 3 (Millipore/Upstate #06-599), acetylated histone 4 (Millipore/Upstate #07-329) or trimethylated histone 3 at lysine 9 (Millipore/Upstate #07-523). Actin (Santa Cruz, Santa Cruz, CA, USA; #1616) and HDAC1 (Affinity Bioreagents, Rockford, IL, USA; #PA1-860) were probed as loading controls. Quantification of bands in films was performed using two independent methods, which yielded similar results, Image J (NIH public software) and Quantity one (Bio-Rad, Hercules, CA, USA). The average of the two methods±s.e.m. is shown as specified in figure legends. For the MDR western analysis, a primary antibody against P-glycoprotein from Calbiochem (Darmstadt, Germany) was used according to the manufacturer's recommendations and HSP90 (Santa Cruz) was used as a loading control.

H2086 cells = experiment: MTS cell viability, H2086; type: cell-based, human; conditions: H2086 NSCLC, 4 days
Method: as §1, §2

[4] = test system: HBEC30KT human bronchial epithelial cells; experiment: MTS cell viability, HBEC30KT; type: cell-based; conditions: HBEC30KT (normal, matched to HCC4017), 4 days
Method: as §1, §2

[5] = test system: OCM1 uveal melanoma cells; experiment: MTS cell viability, OCM1; type: cell-based, human; conditions: 4 days
Method: as §1, §2

H1355 cells = experiment: MTS cell viability, H1355; type: cell-based, human; conditions: H1355 NSCLC, 4 days
Method: as §1, §2

H1993 cells = experiment: MTS cell viability, H1993; type: cell-based, human; conditions: H1993 NSCLC, MTS, 4 days
Method: as §1, §2

MALME3M melanoma cells = experiment: MTS cell viability, MALME3M; type: cell-based, human; conditions: 4 days
Method: as §1, §2

M14 melanoma cells = experiment: MTS cell viability, M14; type: cell-based, human; conditions: 4 days
Method: as §1, §2

LOXIMVI melanoma cells = experiment: MTS cell viability, LOXIMVI; type: cell-based, human; conditions: LOXIMVI melanoma, 4 days
Method: as §1, §2

H820 cells = experiment: MTS cell viability, H820; type: cell-based, human; conditions: H820 NSCLC, 4 days
Method: as §1, §2

SKMEL5 melanoma cells = experiment: MTS cell viability, SKMEL5; type: cell-based, human; conditions: 4 days
Method: as §1, §2

H1299 cells = experiment: MTS cell viability, H1299; type: cell-based, human; conditions: H1299 NSCLC, 4 days
Method: as §1, §2

HCC15 cells = experiment: MTS cell viability, HCC15; type: cell-based, human; conditions: HCC15 NSCLC, MTS, 4 days
Method: as §1, §2

HCC1954 cells = experiment: MTS cell viability, HCC1954; type: cell-based, human; conditions: HCC1954 breast cancer line, 4 days
Method: as §1, §2

H1395 cells = experiment: MTS cell viability, H1395; type: cell-based, human; conditions: H1395 NSCLC, 4 days
Method: as §1, §2

[6] = test system: HCC4018 lung cancer cells; experiment: MTS cell viability, HCC4018; type: cell-based, human; conditions: HCC4018 (lung cancer, matched to HBEC34KT), MTS, 4 days
Method: as §1, §2

UACC62 melanoma cells = experiment: MTS cell viability, UACC62; type: cell-based, human; conditions: 4 days
Method: as §1, §2

[7] = test system: OCM3 uveal melanoma cells; experiment: MTS cell viability, OCM3; type: cell-based, human; conditions: 4 days
Method: as §1, §2

[8] = test system: 348T immortalised normal human mammary epithelial cells; experiment: MTS cell viability, 348T; type: cell-based; conditions: 4 days
Method: as §1, §2

SKMEL28 melanoma cells = experiment: MTS cell viability, SKMEL28; type: cell-based, human; conditions: 4 days
Method: as §1, §2

[9] = test system: HBEC15KT human bronchial epithelial cells; experiment: MTS cell viability, HBEC15KT; type: cell-based; conditions: 4 days
Method: as §1, §2

UACC257 melanoma cells = experiment: MTS cell viability, UACC257; type: cell-based, human; conditions: 4 days
Method: as §1, §2

H358 cells = experiment: MTS cell viability, H358; type: cell-based, human; conditions: H358 NSCLC, 4 days
Method: as §1, §2

MCF-10 cells = experiment: MTS cell viability, MCF-10; type: cell-based, human; conditions: MCF-10, MTS, 4 days
Method: as §1, §2

[10] = test system: HBEC34KT human bronchial epithelial cells; experiment: MTS cell viability, HBEC34KT; type: cell-based; conditions: HBEC34KT (normal, matched to HCC4018), 4 days
Method: as §1, §2

[11] = test system: histone 3 acetylation in H358 cells; experiment: Western blot, acetylated histone 3; type: cell-based, human; conditions: 24 h
Method: as §3

MCF-7 cells = experiment: MTS cell viability, MCF-7; type: cell-based, human; conditions: 4 days; for IC50: MCF-7 breast cancer line
Method: as §1, §2

[12] = test system: MEL270 uveal melanoma cells; experiment: MTS cell viability, MEL270; type: cell-based, human; conditions: 4 days
Method: as §1, §2

Row | Structure (SMILES) | IC50 (Melanocytes) [nM] | IC50 [1] [nM] | IC50 (H2073 cells) [nM] | IC50 (H2009 cells) [nM] | IC50 (H2086 cells) [nM] | IC50 [4] [nM] | IC50 [5] [nM] | IC50 (H1355 cells) [nM] | IC50 (H1993 cells) [nM] | IC50 (MALME3M melanoma cells) [nM] | IC50 (M14 melanoma cells) [nM] | IC50 (LOXIMVI melanoma cells) [nM] | IC50 (H820 cells) [nM] | IC50 (SKMEL5 melanoma cells) [nM] | IC50 (H1299 cells) [nM] | IC50 (HCC15 cells) [nM] | IC50 (HCC1954 cells) [nM] | IC50 (H1395 cells) [nM] | IC50 [6] [nM] | IC50 (UACC62 melanoma cells) [nM] | other results
1 | CC(/C=C/C(=O)NO)=C\[C@@H](C)C(=O)c1ccc(N(C)C)cc1 [TSA, trichostatin A] | 284 | 124 | 63.7 | 38.3 | 275 | 285 | 188 | 107 | 93.5 | 240 | 98 | 57 | 55 | 66 | 150 | 7.9 | 91 | 41 | 23 | 238 | inhibition of total HDAC activity in cell extracts treated in vitro ([2]; 150 nM): blocked; global level of histone 4 acetylation ([3]; 200 nM): globally increased; IC50 [7]: 220 nM; IC50 [8]: 81 nM; IC50 (SKMEL28 melanoma cells): 400 nM; IC50 [9]: 295 nM; IC50 (UACC257 melanoma cells): 222 nM; IC50 (H358 cells): 40 nM; IC50 (MCF-10 cells): 96 nM; IC50 [10]: 346 nM; global level of histone 3 acetylation ([11]; 200 nM): globally increased; IC50 (MCF-7 cells): 90 nM; IC50 [12]: 68 nM
2 | C/C=C1\NC(=O)[C@H]2CSSCC/C=C/[C@H](CC(=O)N[C@H](C(C)C)C(=O)N2)OC(=O)[C@H](C(C)C)NC1=O [Depsipeptide, depsipeptide] | 0.9 | 1.3 | 37.1 | 0.9 | 3.8 | 0.9 | 5.5 | 1.8 | 1.2 | 0.7 | 2.4 | 1.2 | 4 | 1.5 | 12.1 | 6.4 | 1.5 | 5.3 | 4.2 | 0.9 | inhibition of total HDAC activity in cell extracts treated in vitro ([2]; 20 nM): partly inhibited; global level of histone 4 acetylation ([3]; 25 nM): globally increased; IC50 [7]: 1.5 nM; IC50 [8]: 1.3 nM; IC50 (SKMEL28 melanoma cells): 0.8 nM; IC50 [9]: 2.5 nM; IC50 (UACC257 melanoma cells): 1.6 nM; IC50 (H358 cells): 1.1 nM; IC50 (MCF-10 cells): 2.4 nM; IC50 [10]: 1.3 nM; global level of histone 3 acetylation ([11]; 25 nM): globally increased; surviving population (MCF-7 cells; MCF7 cells): 30–40%; IC50 (MCF-7 cells): 4.2 nM; IC50 [12]: 1.8 nM
